Data from US6525022B1, “Receptor specific atrial natriuretic peptides” (Genentech, Inc., priority 1993, dated 2003).
Where a SMILES comes first, the peptide text is derived from it. Bridges are numbered along the chain shown (N, C = ends).

Biological target: T1, membrane preparation from rhesus monkey lung (Macaca mulatta, UniProt F7HE88)
T1 construct: from tissue; host or cells: rhesus monkey lung membranes
T1 sequence (F7HE88 33-1061): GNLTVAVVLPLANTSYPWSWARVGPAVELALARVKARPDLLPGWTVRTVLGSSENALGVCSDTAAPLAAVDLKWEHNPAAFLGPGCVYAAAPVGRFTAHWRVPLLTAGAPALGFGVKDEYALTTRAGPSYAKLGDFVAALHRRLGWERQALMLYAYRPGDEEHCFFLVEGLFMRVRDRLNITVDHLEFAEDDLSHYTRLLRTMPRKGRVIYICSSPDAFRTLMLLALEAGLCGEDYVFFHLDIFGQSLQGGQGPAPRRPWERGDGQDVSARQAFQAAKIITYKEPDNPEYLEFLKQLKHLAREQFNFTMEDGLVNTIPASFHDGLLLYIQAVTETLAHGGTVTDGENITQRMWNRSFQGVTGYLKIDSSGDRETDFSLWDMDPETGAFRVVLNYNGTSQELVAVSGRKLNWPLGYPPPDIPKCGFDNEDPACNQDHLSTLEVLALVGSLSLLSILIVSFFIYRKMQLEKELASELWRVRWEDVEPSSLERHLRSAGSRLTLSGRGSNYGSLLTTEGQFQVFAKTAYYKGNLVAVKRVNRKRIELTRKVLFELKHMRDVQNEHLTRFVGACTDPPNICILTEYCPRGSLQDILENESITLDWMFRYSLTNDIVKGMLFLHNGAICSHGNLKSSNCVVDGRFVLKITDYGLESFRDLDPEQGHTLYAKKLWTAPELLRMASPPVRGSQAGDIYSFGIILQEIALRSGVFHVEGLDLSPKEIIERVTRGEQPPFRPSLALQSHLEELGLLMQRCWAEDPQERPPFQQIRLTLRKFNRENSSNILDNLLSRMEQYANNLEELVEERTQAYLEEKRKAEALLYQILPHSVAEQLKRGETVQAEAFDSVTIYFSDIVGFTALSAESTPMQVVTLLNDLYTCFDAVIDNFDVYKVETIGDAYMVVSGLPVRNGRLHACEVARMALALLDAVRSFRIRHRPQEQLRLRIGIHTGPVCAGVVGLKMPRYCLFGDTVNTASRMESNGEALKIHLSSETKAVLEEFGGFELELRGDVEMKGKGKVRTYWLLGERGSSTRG
Assay: cGMP stimulation of rhesus lung membranes
Type: biochemical
Conditions: FIG. 13, rhesus monkey lung membranes
Experimental: For preparation of membranes from Rhesus monkey tissues, frozen tissue was placed between parafilm and broken up into pieces by hitting with a hammer. Tissue was transferred to a 125 mL polypropylene tube containing 100 mL of ice-cold buffer #1 (50 mM HEPES, pH 7.4, 1 mM EDTA, 250 mM sucrose, 0.7 mg/mL pepstatin A, 0.5 mg/mL leupeptin, 1 mM PMSF, and 1 mM phosphoramidon). Tissue was homogenized with a Brinkman polytron on a setting of 5 two times for 10 sec. The sample was placed on ice between homogenizations. 11 mL of 30 mM MgCl2/100 mM NaCl containing 1 mM phosphoramidon was added to the homogenate. The homogenate was spun at 400×g for 10 min at 4° C. in a HB-4 rotor. The supernatant was transferred to another tube and spun as above. The supernatant was passed though four layers of sterile gauze then centrifuged at 30,000×g for 20 min at 4° C. in a 60 Ti rotor. The pellet was resuspended in 3-5 mL of buffer #2 (50 mM HEPES, pH 7.4, 0.1 mM EDTA, 5 mM MgCl2, 100 mM NaCl, 0.7 mg/mL pepstatin A, 0.5 mg/mL leupeptin, 1 mM PMSF, and 1 mM phosphoramidon), using a 7 mL Wheaton Dounce with a B pestle. Aliquots were stored at −80° C. […]
Data analysis. The competition binding curves and cGMP production dose responses were analyzed by the four-parameter logistic equation with the KaleidaGraph™ program (Synergy Software, PA) to obtain estimates of the IC50 or EC50 values. […]

Compound: CC[C@H](C)[C@@H]1NC(=O)[C@H](CCCNC(=N)N)NC(=O)[C@H](CC(=O)O)NC(=O)[C@H]([C@@H](C)CC)NC(=O)[C@H](CO)NC(=O)CNC(=O)[C@H]([C@@H](C)O)NC(=O)[C@H](Cc2ccccc2)NC(=O)[C@@H](NC(=O)[C@H](CO)NC(=O)[C@H](CO)NC(=O)[C@H](CCCNC(=N)N)NC(=O)[C@H](CCCNC(=N)N)NC(=O)[C@H](CC(C)C)NC(=O)[C@H](CO)NC(=O)[C@H](CCCNC(=N)N)NC(=O)[C@@H]2CCCN2C(=O)[C@H](C)NC(=O)[C@@H](N)[C@@H](C)O)CSSC[C@@H](C(=O)N[C@@H](CC(N)=O)C(=O)N[C@@H](CO)C(=O)N[C@@H](Cc2ccccc2)C(=O)N[C@@H](CCCNC(=N)N)C(=O)N[C@@H](Cc2ccc(O)cc2)C(=O)O)NC(=O)CNC(=O)[C@H](CC(C)C)NC(=O)CNC(=O)[C@H](CO)NC(=O)[C@H](CCC(N)=O)NC(=O)[C@H](C)NC(=O)[C@H](CCCNC(=N)N)NC1=O [ANF 76] (H-TAPRSLRRSSCFTGSIDRIRAQSGLGCNSFRY-OH; disulfide 11-27; C-terminus assumed)
- Potency in stimulation of cGMP production compared with rat ANP: more potent than rat ANP

Compound: CC[C@H](C)[C@@H]1NC(=O)[C@H](CCCNC(=N)N)NC(=O)[C@H](CC(=O)O)NC(=O)[C@H]([C@@H](C)CC)NC(=O)[C@H](CO)NC(=O)CNC(=O)[C@H]([C@@H](C)O)NC(=O)[C@H](Cc2ccccc2)NC[C@@H](NC(=O)[C@H](CO)NC(=O)[C@H](CO)NC(=O)[C@H](CCCNC(=N)N)NC(=O)[C@H](CCCNC(=N)N)NC(=O)[C@H](CC(C)C)NC(=O)[C@@H](N)CO)CSSC[C@@H](C(=O)N[C@@H](CC(N)=O)C(=O)N[C@@H](CO)C(=O)N[C@@H](Cc2ccccc2)C(=O)N[C@@H](CCCNC(=N)N)C(=O)N[C@@H](Cc2ccc(O)cc2)C(=O)O)NC(=O)CNC(=O)[C@H](CC(C)C)NC(=O)CNC(=O)[C@H](CO)NC(=O)[C@H](CCC(N)=O)NC(=O)[C@H](C)NC(=O)[C@H](CCCNC(=N)N)NC1=O [ANF 84]
- Potency in stimulation of cGMP production compared with rat ANP: more potent than rat ANP
